Active and inactive are the calls of the source.
What was measured:
Assay type in all cases: functional
Trichomonas vaginalis = assay: Antiprotozoal activity against Trichomonas vaginalis after 48 hrs
Entamoeba histolytica = assay: Antiprotozoal activity against Entamoeba histolytica JH
Histomonas meleagridis = assay: Antiprotozoal activity against Histomonas meleagridis
Escherichia coli [1] = assay: Antimicrobial activity against Escherichia coli ATCC 10536 by tube dilution method
Escherichia coli [2] = assay: Antimicrobial activity against Escherichia coli Baker 2 carrying APH(3')-I by tube dilution method
Escherichia coli [3] = assay: Antimicrobial activity against Escherichia coli LA290R55 carrying ANT(2'') by tube dilution method
Escherichia coli [4] = assay: Antimicrobial activity against Escherichia coli JR88 carrying AAC(3) by tube dilution method
Escherichia coli [5] = assay: Antimicrobial activity against Escherichia coli HL97/W677 carrying AAC(6') by tube dilution method
Pseudomonas aeruginosa [6] = assay: Antimicrobial activity against Pseudomonas aeruginosa St. M. 762 by tube dilution method
Pseudomonas aeruginosa [7] = assay: Antimicrobial activity against Pseudomonas aeruginosa St. M. 1395 by tube dilution method
Pseudomonas aeruginosa [8] = assay: Antimicrobial activity against Pseudomonas aeruginosa Stone 130 carrying AAC(3) by tube dilution method
Pseudomonas aeruginosa [9] = assay: Antimicrobial activity against Pseudomonas aeruginosa GN 315 carrying AAC(6') by tube dilution method
Klebsiella pneumoniae [10] = assay: Antimicrobial activity against Klebsiella pneumoniae Adler 17 carrying APH(3')-I by tube dilution method
Klebsiella pneumoniae [11] = assay: Antimicrobial activity against Klebsiella pneumoniae Georgetown 3694 carrying APH(2'') by tube dilution method
Providencia = assay: Antimicrobial activity against Providencia 164 carrying AAC(2')-I by tube dilution method
Proteus mirabilis = assay: Antimicrobial activity against Proteus mirabilis Harding by tube dilution method
Providencia rettgeri [12] = assay: Antimicrobial activity against Providencia rettgeri Membel by tube dilution method
Providencia rettgeri [13] = assay: Antimicrobial activity against Providencia rettgeri Anderson by tube dilution method
Serratia marcescens = assay: Antimicrobial activity against Serratia marcescens Dalton by tube dilution method
Salmonella typhimurium = assay: Antimicrobial activity against Salmonella typhimurium Gr. B. by tube dilution method; conditions: Salmonella enterica subsp. enterica serovar Typhimurium
Bacillus subtilis = assay: Antimicrobial activity against Bacillus subtilis ATCC 6633 by tube dilution method
Staphylococcus aureus [14] = assay: Antimicrobial activity against Staphylococcus aureus 209 P by tube dilution method
Staphylococcus aureus [15] = assay: Antimicrobial activity against Staphylococcus aureus Wood by tube dilution method
Staphylococcus aureus [16] = assay: Antimicrobial activity against Staphylococcus aureus Ziegler by tube dilution method
Staphylococcus aureus [17] = assay: Antimicrobial activity against Staphylococcus aureus 59N by tube dilution method
Streptococcus pyogenes [18] = assay: Antimicrobial activity against Streptococcus pyogenes C by tube dilution method
Streptococcus pyogenes [19] = assay: Antimicrobial activity against Streptococcus pyogenes 27 by tube dilution method
Streptococcus pyogenes [20] = assay: Antimicrobial activity against Streptococcus pyogenes Group A Cruz by tube dilution method
Streptococcus pyogenes [21] = assay: Antimicrobial activity against Streptococcus pyogenes Alvarez by tube dilution method

Measured: Activity

CN[C@@H]1[C@@H](O)[C@@H](O[C@@H]2[C@@H](O)[C@H](O[C@H]3O[C@H](CN)[C@@H](O)[C@H](O)[C@H]3N)[C@@H](N)C[C@H]2N)OC[C@]1(C)O
inactive: Trichomonas vaginalis | Entamoeba histolytica | Histomonas meleagridis

CN[C@@H]1[C@@H](O)[C@@H](O[C@@H]2[C@@H](O)[C@H](O[C@H]3OC(CNN4CCOCC4)=CC[C@H]3N)[C@@H](N)C[C@H]2N)OC[C@]1(C)O
inactive: all assays above

CN[C@@H]1[C@@H](O)[C@@H](O[C@@H]2[C@@H](O)[C@H](O[C@H]3OC(/C=N\O)=CC[C@H]3N)[C@@H](N)C[C@H]2N)OC[C@]1(C)O
inactive: all assays above

CN[C@@H]1[C@@H](O)[C@@H](O[C@@H]2[C@@H](O)[C@H](O[C@H]3OC(CNOC)=CC[C@H]3N)[C@@H](N)C[C@H]2N)OC[C@]1(C)O
inactive: all assays above

CN[C@@H]1[C@@H](O)[C@@H](O[C@@H]2[C@@H](O)[C@H](O[C@H]3OC(/C=N\OC)=CC[C@H]3N)[C@@H](N)C[C@H]2N)OC[C@]1(C)O
inactive: all assays above

CN[C@@H]1[C@@H](O)[C@@H](O[C@@H]2[C@@H](O)[C@H](O[C@H]3O[C@H](C(C)N)[C@@H](O)[C@H](O)[C@H]3N)[C@@H](N)C[C@H]2N)OC[C@]1(C)O (stereo not given in full)
inactive: Trichomonas vaginalis | Entamoeba histolytica | Histomonas meleagridis

CN[C@@H]1[C@@H](O)[C@@H](O[C@@H]2[C@@H](O)[C@H](O[C@H]3OC(C(C)N)CC[C@H]3N)[C@@H](N)C[C@H]2N)OC[C@]1(C)O (single isomer, unassigned)
inactive: Trichomonas vaginalis | Entamoeba histolytica | Histomonas meleagridis

CN[C@@H]1[C@@H](O)[C@@H](O[C@@H]2[C@@H](O)[C@H](O[C@H]3OC(/C=N\N)=CC[C@H]3N)[C@@H](N)C[C@H]2N)OC[C@]1(C)O
inactive: all assays above

CN[C@@H]1[C@@H](O)[C@@H](O[C@@H]2[C@@H](O)[C@H](O[C@H]3OC(CNN)=CC[C@H]3N)[C@@H](N)C[C@H]2N)OC[C@]1(C)O
inactive: all assays above

CN[C@@H]1[C@@H](O)[C@@H](O[C@@H]2[C@@H](O)[C@H](O[C@H]3OC(/C=N/N4CCOCC4)=CC[C@H]3N)[C@@H](N)C[C@H]2N)OC[C@]1(C)O
inactive: all assays above

CN[C@@H]1[C@@H](O)[C@@H](O[C@@H]2[C@@H](O)[C@H](O[C@H]3O[C@@H](CN)CC[C@H]3N)[C@@H](N)C[C@H]2N)OC[C@]1(C)O
inactive: Trichomonas vaginalis | Entamoeba histolytica | Histomonas meleagridis

Reference: ChEMBL document CHEMBL3244132, “Semisynthetic aminoglycoside antibacterials. 6. Synthesis of sisomicin, Antibiotic G-52, and novel 6'-substituted analogues of sisomicin from aminoglycoside 66-40C” (J Med Chem, 1978)
